This assay deals with HeLa-JRFL Env/CEM21 cell fusion, luciferase. Description: inhibitors of HIV Env-driven cell fusion, dose response, cherry-pick (AID 652057).

“And” between values parts separate entries of the source, which are not always exact repeats. Identical values can stand only once.

In PubChem BioAssay AID652057 (Broad Institute, 2013) one finds AC50 data, which are given here for two compounds.

As for `C[C@H](CO)N1C[C@H](C)[C@H](CN(C)S(=O)(=O)c2ccccc2)Oc2ncc(/C=C/c3ccccc3)cc2C1=O`, the AC50 is 9.21 µM and 1.6 µM. In the case of `O=C(C[C@H]1C[C@H]2c3cc(NC(=O)c4ccc5c(c4)OCO5)ccc3O[C@H]2[C@H](CO)O1)NCc1ccc(Oc2ccccc2)cc1` it was 35.1 µM.
